Assay results published in paper PMC7708037, “Targeting OGG1 arrests cancer cell proliferation by inducing replication stress” (Nucleic Acids Research, 2020).

Columns and labels:
MCM4 mRNA in A3 cells = experiment: Real time PCR of MCM4 mRNA; type: cell-based, human; settings: 10 μM, 72 h
Method: RNA was extracted from cultured cells using TRIzol® Reagent (Thermo Fisher Scientific). RNA quantity and quality were assessed by NanoDrop® (ND-1000 V3.7.1; Thermo Fisher Scientific). The High-Capacity cDNA Reverse Transcription Kit (Applied Biosystems) was utilized for cDNA synthesis following the manufacturer's instructions. Two microliters of cDNA at a final concentration of 10 ng/μl were mixed with GoTaq® qPCR MasterMix 1× (Promega) and 1 μM cDNA primers of each pair of primers (F/R) in a final volume reaction of 10 μl. Primers used are listed in Supplementary Table S2. The amplification conditions consisted of an initial step at 95°C for 10 min, followed by 40 cycles of 10 s at 95°C and 1 min at 60°C. Each qPCR was performed in duplicates or triplicates including no-template controls in an Abi QuantStudio 1 Flex Real-Time PCR System (Applied Biosystems). Relative transcript levels for each replication gene, was calculated using the 2ΔΔCt method for qPCR analysis after normalization with the housekeeping gene beta-actin (B-actin-F 5′-CCTGGCACCCAGCACAAT- 3′; B-actin-R 5′ - GGGCCGGACTCGTCATACT-3′).
Figure 6. […] Only genes with a mean normalized count >5 were analyzed. […] Statistical significance was determined using a two-sided unpaired t-test (ns, non-significant, *P < 0.05, **P < 0.01, ***P < 0.001 and ****P < 0.0001).

[1] = system: OGG1 substrate lesions in A3 cells; experiment: OGG1-modified Comet assay; type: cell-based, human; settings: 10 μM, 72 h
Method: 8-oxodG detection in genomic DNA through LC–MS/MS ([39]) and single-cell electrophoresis ([40]) were performed as described.
Figure 5. Effect of TH5487 on DNA lesions, DNA damage markers and DNA replication. (A) 8-oxodG accumulation in A3 cells. A3 cells were treated with 20 mM KBrO3 for 1 h or with 10 μM TH5487 for the indicated times, and the amount of genomic 8-oxodG was quantified with LC-MS/MS. Data are average ±SD of five replicates from two independent experiments. (B) Comet assay. A3 cells were treated with 10 μM TH5487 for 72 h and strand-breaks and OGG1 substrate lesions were analyzed with the OGG1-modified Comet assay. Representative images of cells are shown. (C) Violin blot of Comet tail moment. Cells were treated as in B, and the tail moment of the cells were analyzed using blinded automatic analysis (n = 200 per condition from two independent experiments). The full line indicates median, and the dotted lines quartiles. (D) Violin blot of phosphorylated γH2AX intensity. A3 cells were treated with 0.1% DMSO or 10 μM TH5487 for the indicated times and stained for phosphorylated γH2AX. […] At least 33 000 nuclei per group were quantified from three independent experiments. […] At least 300 forks were scored per condition. Statistical significance was determined using unpaired, two-sided t-tests (**P < 0.01, ***P < 0.001 and ****P < 0.0001; ns, non-significant).

O=C(Nc1ccc(I)cc1)N1CCC(n2c(=O)[nH]c3c(Br)cccc32)CC1 [TH5487]
MCM4 mRNA levels (MCM4 mRNA in A3 cells): slight but significant downregulation
Increase in OGG1-induced tail length (Comet) [1]: ~50%
